Results from US5344843A, “Cat-1 inhibitors, pharmaceutical compositions and methods of use” (Hoffman-La Roche Inc., priority 1992, dated 1994).
pIC50: −log10 of the molar value. Structures can show the parent of a compound that is named as a salt.

Key:
[1] = target: T1, CAT-1 (carnitine acyltransferase 1) (Rattus norvegicus, UniProt Q63704); assay: Primary Screen--Inhibition of CAT-1 in isolated mitochondria; format: biochemical; conditions: rat heart mitochondria, reduction of palmitoyl carnitine formation by 50%; read-out: Primary Screen IC50
T1 construct: This preparation is used as the isolated mitochondrial preparation; from tissue; host or cells: rat heart (atria removed), isolated mitochondria
T1 sequence (Q63704 1-772): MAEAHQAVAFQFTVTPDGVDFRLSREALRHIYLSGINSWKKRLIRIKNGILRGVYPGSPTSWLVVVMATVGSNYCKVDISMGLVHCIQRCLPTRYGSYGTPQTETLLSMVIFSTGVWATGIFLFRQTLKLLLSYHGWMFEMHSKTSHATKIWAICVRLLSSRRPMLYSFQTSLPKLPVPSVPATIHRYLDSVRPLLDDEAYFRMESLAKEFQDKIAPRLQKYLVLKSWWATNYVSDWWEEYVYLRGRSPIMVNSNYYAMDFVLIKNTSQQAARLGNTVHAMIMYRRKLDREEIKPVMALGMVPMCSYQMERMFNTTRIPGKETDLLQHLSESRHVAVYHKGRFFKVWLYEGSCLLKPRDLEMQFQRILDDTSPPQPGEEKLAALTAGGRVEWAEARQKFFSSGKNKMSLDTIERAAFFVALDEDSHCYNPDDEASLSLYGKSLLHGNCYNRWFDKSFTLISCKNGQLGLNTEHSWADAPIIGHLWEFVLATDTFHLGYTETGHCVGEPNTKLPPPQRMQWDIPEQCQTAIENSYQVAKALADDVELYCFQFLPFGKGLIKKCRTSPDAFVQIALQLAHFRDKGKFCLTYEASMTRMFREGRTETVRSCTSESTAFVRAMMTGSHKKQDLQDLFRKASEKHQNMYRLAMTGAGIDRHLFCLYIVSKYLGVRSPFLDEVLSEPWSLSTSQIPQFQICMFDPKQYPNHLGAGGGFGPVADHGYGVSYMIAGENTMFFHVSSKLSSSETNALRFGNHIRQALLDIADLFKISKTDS

[2] = target: T1, CAT-1 (carnitine acyltransferase 1); assay: Secondary Screen--Inhibition of CAT-1 in intact cardiac myocytes (hypoxia-induced increase in long-chain acylcarnitines); format: cell-based; conditions: isolated rat cardiac myocytes, 50% inhibition of hypoxia-induced increase in long-chain acylcarnitines
Procedure: Secondary Screen--Inhibition of CAT-1 in intact Cardiac Myocytes
(a) Preparation of Isolated Rat Cardiac Myocytes
Four hearts are excised from anesthetized rats and perfused retrogradly via the Langendorf technique. Each heart receives 100 mL of Krebs (NaCl, 118.4 mM; KCL, 4.6 mM; NaH2 PO4, 1.0 mM; NaHCO3, 20 mM; MgSO4, 2 mM; CaCl2, 50 μM; glucose, 11.0 mM), 100 mL of Ca++ free Krebs and finally 100 mL of 0.5% collagenase (Boehringer Mannhelm, type 1) in Hepes (NaCl, 115 mM; KCl, 5 mM; sucrose, 35 mM; glucose, 10 mM; Hepes, 10 mM; taurine, 4 mM; MgSO4, 2 mM; CaCl2, 50 μM). After these perfusions, the hearts are chopped into pieces, approx. 0.5 cm×0.5 cm and placed in four 125 mL plastic bottles along with 25 mL of collagenase/Hepes situated in a water bath maintained at 35° C. The pieces of cardiac tissue in each bottle are agitated by using a Harvard respirator connected to four glass syringes, which sucks the tissue up and down each tube during each respiratory cycle. After fifteen minutes, the collagenase/Hepes is removed and replaced with fresh collegenase/Hepes and the process repeated. The collegenase/Hepes from the subsequent fifteen minute harvests are centrifuged at 500 g to pellet the cells which are then resuspended in Hepes buffer. After six harvests, all cells are pelleted, resuspended in 2×26.5 mL of Hepes plus BSA (350 mg) and layered on top of 2×percoll gradients (21.15 mL percoll, 2.35 mL NaCl, 6 drops acetic acid). This is centfifuged at 3000 g for eight minutes forming a percoll gradient which results in viable cells being separated from damaged cells. The viable cells are removed, washed with Hepes and finally resuspended in 25 mL of Hepes.
The isolated cardiac myocytes (2 mL; approximately 1×10^6 cells) are separated into six glass pods. Into four of these are placed selected concentrations of the compound to be tested, and the cells are incubated for twenty minutes, after which the pods are centrifuged at 300 g for three minutes. 300 μL of normoxic Hepes is placed in one of the pods not containing compound and then all pods are placed in a hypoxic chamber (N2 atmosphere). Oxygen is fed via small bore steel tubes to the pod containing the normoxic buffer, while the other five pods receive pre-purified argon (99.998% pure). After two minutes, Hepes (pre-gassed with argon for at least twelve hours) is fed into the five hypoxic pods. This hypoxic environment (pO2 <10 mm Hg) is maintained for twenty minutes, after which the cells and pods are frozen by contact with a metal block precooled in liquid N2. The pods are then removed from the chamber and stored at -70° C. The carnitine assay is performed, as described below in (c), to determine the amount of long-chain acylcarnitine in the cells from the normoxic, hypoxic and hypoxic plus compound samples. […] Thus the IC50 in this screen is the concentration of test compound which produces a 50% inhibition of the hypoxia-induced increase in long-chain acylcarnitines.
(c) Long-chain Acylcarnitine Assay.
The frozen cell samples are thawed, mixed and homogenized with 40 μL of 70% PCA. The homogenate is transferred to eppendorf tubes while the homogenization tube and the glass pod is rinsed with 500 μL of 7% PCA, with the rinse being added to the eppendorf tube. This is then centrifuged at 1000 g for two minutes to pellet the precipitate (containing the long-chain acylcarnitine) and the supernatant is discarded. The pellet is washed twice with 500 μL of 7% PCA, the supernatants being discarded. The pellet is then hydrolyzed (to separate the acyl unit from carnitine to yield free carnitine) by the addition of 200 μL of aleionized H2 O and 50 μL of 5N KOH and incubated at 70° C. for ninety minutes.

| SMILES | pIC50 [1] | pIC50 [2] |
| --- | --- | --- |
| O=C(O)C(=O)c1ccc(OCCOc2ccc3ccccc3c2)s1 [Example 4, 5-[[2-(2-naphthalenyloxy)ethyl]oxy]-alpha-oxo-2-thiopheneacetic acid] | 7.30 | 6.00 |
| CN(O)C(=O)C(=O)c1ccc(OCCOc2ccc3ccccc3c2)cc1 [Example 299, N-hydroxy-N-methyl-4-[2-(2-naphthalenyloxy)ethoxy]-alpha-oxobenzeneacetamide] | 5.72 | 5.10 |
| CCC(C)(C)C(=O)OCc1cccc(C)c1/C=C/COc1ccc(C(=O)C(=O)O)cc1 [Example 220, (E)-4-[3-[2-[(2,2-dimethyl-1-oxobutoxy)methyl]-6-methylphenyl]-2-propenyloxy]-alpha-oxobenzeneacetic acid] | 5.80 | 7.05 |
| C[N+](C)(C)CCOC(=O)C(=O)c1ccc(OCCOc2ccc3ccccc3c2)s1 [Example 7, 2-[[5-[[2-(2-naphthalenyloxy)ethyl]oxy]-alpha-oxo-2-thiopheneacetyl]oxy]-N,N,N-trimethylethanaminium iodide] | 7.52 | 7.00 |
| O=C(O)C(=O)c1ccc(OC/C=C/c2ccc3ccccc3c2)cc1 [Example 96, (E)-4-[[3-(2-naphthalenyl)-2-propenyl]oxy]-alpha-oxobenzeneacetic acid] | 7.19 | 5.15 |

Further lines, results first:

| pIC50 [1] | pIC50 [2] | SMILES |
| --- | --- | --- |
| 6.70 | 5.10 | O=C(O)C(=O)c1ccc(OCCOc2ccc3ccccc3c2)c([N+](=O)[O-])c1 [Example 179, 4-[2-(2-naphthalenyloxy)ethoxy]-3-nitro-alpha-oxobenzeneacetic acid] |
| 5.82 | 5.30 | CO/N=C(\C(=O)O)c1ccc(OCCOc2ccc3ccccc3c2)s1 [Example 307, (E)-alpha-(methoxyimino)-5-[2-(2-naphthalenyloxy)ethoxy]-2-thiopheneaceticacid] |
| 4.43 | 5.30 | N[C@H](C(=O)O)c1ccc(OCCOC2CCCCCCC2)cc1 [Example 18, (S)-alpha-amino-4-[[2-(cyclooctyloxy)ethyl]oxy]benzeneaceticacid hydrochloride] |
